Source: patent US9393221B2, “Methods and compounds for reducing intracellular lipid storage” (THE GENERAL HOSPITAL CORPORATION, priority 2011, dated 2016)
Structures can show the parent of a compound that is named as a salt. Where two headings read alike, the source gives them in different places.

Tested on: ATGL-KO iPSCs
Experiment: High throughput iPSC chemical screening, Oil Red O (ORO) lipid accumulation; as to Z-score: test concentration or dose not given here
Type: cell-based, mouse
[1] = normalized ORO level vs DMSO-treated cells, compound present during 7 days differentiation, 96-well, negative = decrease in lipid accumulation

Molecule | Z-score [1] | also measured
N[C@@H]1C[C@H]1c1ccccc1 [Tranylcypromine hydrochloride] | −0.2314 | 
COc1c2occc2c(OC)c2c(=O)cc(C)oc12 [Khellin] | −0.1533 | 
CC(=O)O[C@H]1C(=O)[C@@]2(C)[C@H]([C@H](OC(=O)c3ccccc3)[C@]3(O)C[C@H](OC(=O)[C@H](O)[C@@H](NC(=O)c4ccccc4)c4ccccc4)C(C)=C1C3(C)C)[C@]1(OC(C)=O)CO[C@@H]1C[C@@H]2O [Paclitaxel] | 48.9183 | 
CO/N=C(\C(=O)N[C@@H]1C(=O)N2C(C(=O)O)=C(COC(N)=O)CS[C@H]12)c1ccco1 [Cefuroxime sodium salt] | 0.8177 | 
CC1CC(OC(=O)c2ccccc2O)CC(C)(C)C1 (centres unmarked) [Homosalate] | −0.7744 | Rank in normalized ORO score from screen (glycolytic switch compounds): 320
O=c1cc(-c2ccc(O)cc2)oc2c([C@@H]3O[C@H](CO)[C@@H](O)[C@H](O)[C@H]3O)c(O)cc(O)c12 [Vitexin] | −0.0089 | 
C[C@H]1C[C@@H]2[C@H]([C@@H](O)C[C@@]3(C)[C@H]2CC[C@]3(O)C(=O)CO)[C@@]2(C)C=CC(=O)C=C12 [Methylprednisolone, 6-alpha] | −1.1745 | 
CCCCN(CCCC)CCC(O)c1cc2c(Cl)cc(Cl)cc2c2cc(C(F)(F)F)ccc12 (centres unmarked) [Halofantrine hydrochloride] | 1.459 | 
COc1ccc(C(Cl)=C(c2ccc(OC)cc2)c2ccc(OC)cc2)cc1 [Chlorotrianisene] | −0.6534 | 
Cn1c(-c2ccc3c(c2)OCO3)cc(=O)c2ccccc21 [Graveoline] | −1.0242 | 
CCN(CC)Cc1cc(Nc2ccnc3cc(Cl)ccc23)ccc1O [Amodiaquin dihydrochloride dihydrate] | 0.3315 | 
CC(=O)SCC(Cc1ccccc1)C(=O)NCC(=O)OCc1ccccc1 (centres unmarked) [Racecadotril] | 0.516 | 
NC(Cn1ccc(=O)c(O)c1)C(=O)O (centres unmarked) [Mimosine] | 0.9075 | 
C[n+]1ccccc1/C=N/O [Pralidoxime chloride] |  | Z-score: 1.281
CC(C)(C)NCC(O)c1ccc(O)c(CO)c1 (centres unmarked) [Salbutamol] | −0.9959 | 
COc1cc(-c2ccc(N=Nc3ccc4c(S(=O)(=O)[O-])cc(S(=O)(=O)[O-])c(N)c4c3O)c(OC)c2)ccc1N=Nc1ccc2c(S(=O)(=O)[O-])cc(S(=O)(=O)[O-])c(N)c2c1O.[Na+].[Na+].[Na+].[Na+] [Chicago sky blue 6B] | 0.6958 | 
O=C1NCC2(CCN(CCc3ccccc3)CC2)O1 [Fenspiride hydrochloride] | 0.2827 | 
CC(C)(C)NC[C@H](O)COc1ccccc1C1CCCC1 [Penbutolol sulfate] | −0.627 | 
CC1COc2c(N3CCN(C)CC3)c(F)cc3c(=O)c(C(=O)O)cn1c23 (centres unmarked) [Ofloxacin] | 0.7623 | 
Nc1ccc(S(=O)(=O)NC(=O)c2ccccc2)cc1 [Sulfabenzamide] | 1.96 | 
C[C@]12CC[C@@H](O)C[C@H]1CC[C@@H]1[C@@H]2CC[C@]2(C)C(=O)CC[C@@H]12 [3-alpha-Hydroxy-5-beta-androstan-17-one] |  | Z-score: −0.187
CN1[C@@H]2C[C@@H](OC(=O)[C@H](CO)c3ccccc3)C[C@H]1[C@@H]1O[C@@H]12 [Scopolamine hydrochloride] | 0.9672 | 
COC(=O)C1=CO[C@@H](C)[C@H]2CN3CCc4c([nH]c5ccccc45)[C@@H]3C[C@H]12.Cl [Ajmalicine hydrochloride] | −0.8989 | 
(−)-Quinpirole hydrochloride | 1.311 | 
CN1CCc2cccc3c2[C@H]1Cc1ccc(O)c(O)c1-3.CN1CCc2cccc3c2[C@H]1Cc1ccc(O)c(O)c1-3.Cl.Cl.O |  | Z-score: −0.2622
CC(=O)c1ccc(S(=O)(=O)NC(=O)NC2CCCCC2)cc1 [Acetohexamide] | 0.3584 | 

Molecule | Z-score [1] | also measured
CN[C@H]1CC[C@@H](c2ccc(Cl)c(Cl)c2)c2ccccc21 [Sertraline hydrochloride] | −1.6299 | 
C[N+]12CCC(CC1)C(OC(=O)C(O)(c1ccccc1)c1ccccc1)C2 (centres unmarked) [Clidinium bromide, reference compound] | −1.8548 | 
O=C1CCC(N2C(=O)c3ccccc3C2=O)C(=O)N1 (centres unmarked) [Thalidomide] | −1.026 | 
C[C@]12CCC(=O)C=C1CC[C@@H]1[C@@H]2C(=O)C[C@]2(C)C(=O)CC[C@@H]12 [Adrenosterone] | −1.025 | 
CCOC(=O)[C@H](CCc1ccccc1)N[C@@H](C)C(=O)N1CCC[C@H]1C(=O)O [Enalapril maleate] | 0.1645 | 
C1CCN2C[C@@H]3C[C@@H](CN4CCCC[C@@H]34)[C@H]2C1 [Sparteine (−)] | −0.3524 | 
CCCCC(CC)CNC(=N)NC(=N)NCCCCCCNC(=N)NC(=N)NCC(CC)CCCC (centres unmarked) [Alexidine dihydrochloride] | 43.2376 | 
Foliosidine | −0.7349 | 
CC(C)(C)C(=O)OCOC(=O)[C@@H]1N2C(=O)[C@@H](/N=C/N3CCCCCC3)[C@H]2SC1(C)C [Pivmecillinam hydrochloride] | −0.219 | 
Avermectin B1 | −0.9704 | 
CC(=O)OCC(=O)[C@@]1(O)CC[C@H]2[C@@H]3CCC4=CC(=O)C=C[C@]4(C)[C@@]3(F)[C@@H](O)C[C@@]21C [Isoflupredone acetate] | 1.55 | 
CC1=C(/C=C/C(C)=C/C=C/C(C)=C\C(=O)O)C(C)(C)CCC1 [Isotretinoin] | −1.1597 | 
O=C1CN(/N=C/c2ccc(-c3ccc([N+](=O)[O-])cc3)o2)C(O)=N1 [Dantrolene sodium salt] | −0.3347 | 
CN1CCN(CC(=O)N2c3ccccc3C(=O)Nc3cccnc32)CC1 [Pirenzepine dihydrochloride] | −1.096 | 
CN(C)CCCN1c2ccccc2Sc2ccc(Cl)cc21 [Chlorpromazine hydrochloride] | −0.5417 | 
CN(C)C(=O)Oc1cc(OC(=O)N(C)C)cc(C(O)CNC(C)(C)C)c1 (centres unmarked) [Bambuterol hydrochloride] | 0.1858 | 
Cn1c(=O)c2[nH]cnc2n(C)c1=O.O [Theophylline monohydrate] | 0.7001 | 
C1CCc2nnnn2CC1 [Pentylenetetrazole] | 0.6653 | 
CCN1CCC[C@H]1CNC(=O)c1c(OC)ccc(Br)c1OC [Remoxipride Hydrochloride] | −0.4559 | 
CO[C@H]1C[C@H](O[C@H]2[C@H](C)[C@@H](O[C@@H]3O[C@H](C)C[C@H](N(C)C)[C@H]3OC(C)=O)[C@@H](C)C[C@@]3(CO3)C(=O)[C@H](C)[C@@H](OC(C)=O)[C@@H](C)[C@@H](C)OC(=O)[C@@H]2C)O[C@@H](C)[C@@H]1OC(C)=O [Troleandomycin] | −0.5429 | 
CCN1C[C@]2(C)CC[C@H](O)[C@]34C1[C@@H](C[C@H]23)[C@@]1(O)C[C@H](OC)[C@H]2C[C@@H]4[C@@H]1[C@H]2O [Karakoline] | −1.4178 | 
CCCC1C(=O)N2C(N(C)C)=Nc3ccc(C)cc3N2C1=O (centres unmarked) [Azapropazone] | −0.6493 | 
CCCCNc1c(C(=O)OCC)c(C)nc2c1cnn2CC [Tracazolate hydrochloride] | −1.6368 | 
Cc1c(N)c(=O)n(-c2ccccc2)n1C [Ampyrone] | −0.2996 | 
COc1cc2cc3c4cc(OC)c(OC)cc4cc[n+]3c(C)c2cc1OC.O.[Cl-] [Coralyne chloride hydrate] | 7.275 | 
C[C@]12CCC(=O)C=C1C=C[C@@H]1[C@@H]2CC[C@@]2(C)[C@H]1CC[C@@]2(O)CCC(=O)O [Canrenoic acid potassium salt] | −0.274 | 
